Laboratory results: US20230015823A1, “METHODS OF ADMINISTERING VOXELOTOR” (Global Blood Therapeutics, Inc., priority 2019, published 2023)
Entries after “also recorded” stand apart in the source; their conditions may differ.

How the values were obtained:
[1] = test system: pregnant rats; assay: Embryo-fetal development study in pregnant rats; type: in vivo, rat
Experimental: In embryo-fetal development studies, voxelotor was administered orally to pregnant rats at 15, 50, and 250 mg/kg/day (gestation days 7 through 17) and rabbits at 25, 75, and 150 mg/kg/day (gestation days 7 through 19) through organogenesis.

[2] = biological target: OATP1B1 (Homo sapiens, UniProt Q9Y6L6); assay: In vitro transporter studies: OATP1B1; type: in vitro ADME
[3] = Effect of acid reducing agent omeprazole on voxelotor; details: in vivo
[4] = biological target: OCT2 (Homo sapiens, UniProt O15244); assay: In vitro transporter studies: OCT2; type: in vitro ADME
[5] = test system: rat; assay: Rat micronucleus assay; type: in vivo
Excerpt: Voxelotor was not genotoxic in the reverse mutation bacterial (Ames) test, rat Comet assay, or rat micronucleus assay.

[6] = Phase 1 hepatic impairment study: safety evaluation (TEAEs); type: in vivo
Excerpt: This was a Phase 1, multiple-center, nonrandomized, open-label, parallel group study of a single oral dose of voxelotor administered in subjects with mild (Child-Pugh A; score 5 to 6 points), moderate (Child-Pugh B; score 7 to 9 points), or severe (Child-Pugh C; score 10 to 15 points) hepatic impairment and subjects with normal hepatic function. This study was designed to assess the effects of mild, moderate, or severe hepatic impairment on the PK of a single oral dose of voxelotor. Routine safety assessments (AE monitoring, vital signs, physical examinations, clinical laboratory tests, and ECGs) were performed.
Eligible subjects received a single oral dose of voxelotor 1500 mg (5×300-mg capsules) on Day 1 (for normal hepatic function, mild and moderate hepatic impairment). A lower dose of voxelotor 600 mg (2×300-mg capsules) was administered for the subjects with severe hepatic impairment.
Adverse events and concomitant medication use were monitored throughout the study. Safety assessments, including physical examinations, vital signs assessments, 12-lead ECGs, and clinical laboratory tests, were performed. Whole blood and plasma concentrations of voxelotor were determined using validated assays.
All statistical analyses were performed using the safety population. All AEs were coded to SOC and PT using MedDRA (Version 19.0) and presented by subject in data listings. A treatment-emergent AE was defined as an AE that was not present prior to treatment with study drug, but appeared following treatment or was present at treatment initiation but worsened during treatment. An AE that was present at treatment initiation but resolved and then reappeared while the subject was on treatment was a TEAE (regardless of the intensity of the AE when the treatment was initiated). Programmatically, an AE was classified as a TEAE if the start date and time occurred on or after the start date and time of first study drug dosing. The overall incidence of TEAEs (number and percentage of subjects) as well as the number of events were summarized by hepatic function group, severity, SAEs, causally related TEAE and SAEs, TEAEs leading to study or treatment discontinuation, life-threatening SAEs, and SAEs resulting in death.
The TEAEs were summarized and tabulated at both the subject (number [%] of subjects) and event (number of events) level: (1) by hepatic function group, SOC, and PT; (2) by hepatic function group, SOC, PT, and maximum reported severity; and (3) by hepatic function group, SOC, PT, and maximum relationship to study drug.

[7] = PK in patients with HbSC genotype vs HbSS genotype; details: human, in vivo
[8] = biological target: T1, CYP2C19 (Homo sapiens, UniProt P33261); assay: Effect of voxelotor on PK of CYP2C19 probe substrate omeprazole in healthy subjects; type: in vivo
T1 construct: endogenous in cells; host or cells: healthy subjects, in vivo
Experimental: (§1) During Period 1, subjects received a single dose of caffeine 100 mg, warfarin sodium 10 mg+vitamin K 10 mg, omeprazole 20 mg, and midazolam hydrochloride 2 mg on Day 1. During Period 2, subjects received voxelotor 900 mg QD on Days 1 and 2 followed by 600 mg QD on Day 3, a single dose of caffeine 100 mg, warfarin sodium 10 mg+vitamin K 10 mg, omeprazole 20 mg, and midazolam hydrochloride 2 mg on Day 4, and voxelotor 600 mg QD on Days 4 through 7.
(§2) Whole blood and plasma concentrations of voxelotor and plasma concentrations of caffeine, paraxanthine, S-warfarin, omeprazole, 5-hydroxyomeprazole, midazolam, and 1-hydroxymidazolam were determined using validated assays.

[9] = biological target: MATE2-K (Homo sapiens, UniProt Q86VL8); assay: In vitro transporter studies: MATE2-K; type: in vitro ADME
[10] = Excretion after administration of radiolabeled voxelotor; type: in vivo
Excerpt: Following the administration of radiolabeled voxelotor, approximately 62.6% of the dose and its metabolites are excreted into feces (33.3% unchanged) and 35.5% in urine (0.08% unchanged).

[11] = Probe substrate study in healthy subjects: voxelotor exposure and safety; type: in vivo, human; details: alone and in combination with caffeine, warfarin sodium, omeprazole and midazolam hydrochloride
Experimental: as §1, §2

[12] = biological target: CYP2C8 (Homo sapiens, UniProt P10632)
[13] = Effect of food on voxelotor PK; type: in vivo
[14] = test system: QT interval; assay: Cardiac electrophysiology; type: in vivo; details: plasma concentrations approximately 2-fold above therapeutic concentrations
[15] = Voxelotor in milk of lactating rats; type: in vivo, rat
Excerpt: There are no data on the presence of voxelotor in human milk, the effects on the breastfed child, or the effects on milk production. […] Plasma concentrations of voxelotor in pregnant rats were higher than the concentration in milk. When a drug is present in animal milk, it is likely that the drug will be present in human milk. […] Because of the potential for serious adverse reactions in the breastfed child, including changes in the hematopoietic system, advise patients that breastfeeding is not recommended during treatment with OXBRYTA, and for at least 2 weeks after the last dose.

T1 sequence (P33261 whole entry): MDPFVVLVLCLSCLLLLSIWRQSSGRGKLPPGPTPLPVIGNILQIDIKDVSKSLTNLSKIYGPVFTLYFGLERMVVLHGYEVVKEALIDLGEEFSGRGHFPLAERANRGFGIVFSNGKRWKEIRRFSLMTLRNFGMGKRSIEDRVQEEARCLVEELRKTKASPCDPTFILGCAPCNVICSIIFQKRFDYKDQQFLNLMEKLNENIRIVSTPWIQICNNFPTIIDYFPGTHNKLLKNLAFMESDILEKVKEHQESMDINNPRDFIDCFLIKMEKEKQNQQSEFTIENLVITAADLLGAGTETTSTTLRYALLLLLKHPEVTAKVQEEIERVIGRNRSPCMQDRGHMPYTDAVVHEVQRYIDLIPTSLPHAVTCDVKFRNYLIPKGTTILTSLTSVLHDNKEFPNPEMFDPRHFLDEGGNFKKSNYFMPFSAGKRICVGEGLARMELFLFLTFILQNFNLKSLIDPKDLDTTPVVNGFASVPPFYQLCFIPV
OATP1B1, sequence (Q9Y6L6 whole entry): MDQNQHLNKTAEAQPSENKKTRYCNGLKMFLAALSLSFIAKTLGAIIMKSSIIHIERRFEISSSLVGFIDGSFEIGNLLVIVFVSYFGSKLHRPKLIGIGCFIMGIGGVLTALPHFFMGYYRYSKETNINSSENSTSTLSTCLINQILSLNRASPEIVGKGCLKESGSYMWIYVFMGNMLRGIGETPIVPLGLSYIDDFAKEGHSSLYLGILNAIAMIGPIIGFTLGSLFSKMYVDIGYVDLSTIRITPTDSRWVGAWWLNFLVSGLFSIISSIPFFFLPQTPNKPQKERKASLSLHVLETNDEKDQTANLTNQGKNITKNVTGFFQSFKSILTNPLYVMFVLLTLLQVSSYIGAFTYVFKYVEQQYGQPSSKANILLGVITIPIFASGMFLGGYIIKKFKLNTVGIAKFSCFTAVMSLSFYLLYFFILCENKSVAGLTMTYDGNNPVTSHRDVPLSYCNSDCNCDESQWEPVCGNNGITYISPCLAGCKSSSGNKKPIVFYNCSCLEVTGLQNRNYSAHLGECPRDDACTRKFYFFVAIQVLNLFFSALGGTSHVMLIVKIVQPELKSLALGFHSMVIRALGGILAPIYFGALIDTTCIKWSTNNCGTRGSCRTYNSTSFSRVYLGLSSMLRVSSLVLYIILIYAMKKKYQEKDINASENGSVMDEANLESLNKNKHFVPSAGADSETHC
MATE2-K, sequence (Q86VL8 1-566 isoform Q86VL8-3): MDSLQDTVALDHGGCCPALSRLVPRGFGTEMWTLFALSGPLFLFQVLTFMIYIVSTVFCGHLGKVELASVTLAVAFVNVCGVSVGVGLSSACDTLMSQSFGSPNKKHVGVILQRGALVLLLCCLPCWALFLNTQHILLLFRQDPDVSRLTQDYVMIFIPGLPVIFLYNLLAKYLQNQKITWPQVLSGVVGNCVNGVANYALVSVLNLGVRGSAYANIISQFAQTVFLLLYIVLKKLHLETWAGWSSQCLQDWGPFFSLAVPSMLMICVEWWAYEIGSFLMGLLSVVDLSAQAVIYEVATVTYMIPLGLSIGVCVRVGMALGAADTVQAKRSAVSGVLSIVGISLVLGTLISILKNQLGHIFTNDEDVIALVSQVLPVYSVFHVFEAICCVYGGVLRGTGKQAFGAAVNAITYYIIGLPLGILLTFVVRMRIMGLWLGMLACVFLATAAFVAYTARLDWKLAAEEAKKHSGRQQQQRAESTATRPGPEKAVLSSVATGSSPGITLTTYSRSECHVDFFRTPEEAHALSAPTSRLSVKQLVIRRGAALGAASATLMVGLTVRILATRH
OCT2, sequence (O15244 whole entry): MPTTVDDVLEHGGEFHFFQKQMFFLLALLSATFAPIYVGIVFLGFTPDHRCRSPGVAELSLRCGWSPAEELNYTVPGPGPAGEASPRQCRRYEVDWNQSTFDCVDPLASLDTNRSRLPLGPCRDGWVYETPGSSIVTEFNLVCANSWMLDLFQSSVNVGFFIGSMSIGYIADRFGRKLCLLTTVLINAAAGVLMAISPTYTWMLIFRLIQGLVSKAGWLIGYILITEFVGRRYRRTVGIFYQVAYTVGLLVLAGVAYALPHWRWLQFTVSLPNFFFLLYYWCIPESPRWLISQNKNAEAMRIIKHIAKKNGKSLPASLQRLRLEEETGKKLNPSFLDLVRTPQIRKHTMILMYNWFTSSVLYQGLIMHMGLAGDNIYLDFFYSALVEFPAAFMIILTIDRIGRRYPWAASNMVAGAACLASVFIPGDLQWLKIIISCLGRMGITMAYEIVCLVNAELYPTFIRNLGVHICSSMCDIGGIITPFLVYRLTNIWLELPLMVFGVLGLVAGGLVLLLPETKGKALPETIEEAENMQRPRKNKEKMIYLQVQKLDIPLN
CYP2C8, sequence (P10632 whole entry): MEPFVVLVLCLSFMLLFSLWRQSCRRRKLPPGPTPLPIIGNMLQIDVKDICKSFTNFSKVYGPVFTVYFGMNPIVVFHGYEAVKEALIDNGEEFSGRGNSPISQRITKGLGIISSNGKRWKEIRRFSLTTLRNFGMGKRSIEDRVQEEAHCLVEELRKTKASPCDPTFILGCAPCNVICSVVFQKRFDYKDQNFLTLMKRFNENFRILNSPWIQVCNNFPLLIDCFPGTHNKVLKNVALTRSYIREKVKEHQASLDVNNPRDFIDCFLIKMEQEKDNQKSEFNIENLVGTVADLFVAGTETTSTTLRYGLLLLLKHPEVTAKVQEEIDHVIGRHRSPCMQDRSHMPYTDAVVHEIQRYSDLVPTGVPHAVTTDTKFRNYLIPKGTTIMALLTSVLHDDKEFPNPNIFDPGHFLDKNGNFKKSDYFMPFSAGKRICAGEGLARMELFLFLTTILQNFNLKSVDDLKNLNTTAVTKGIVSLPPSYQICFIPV

In the case of `CC(C)n1nccc1-c1ncccc1COc1cccc(O)c1C=O` [voxelotor, 2-hydroxy-6-((2-(1-isopropyl-1H-pyrazol-5-yl)pyridin-3-yl)methoxy)benzaldehyde], the adverse developmental outcomes ([1]; pregnant rats, oral 15, 50, 250 mg/kg/day, gestation days 7 through 17) is reported as “no adverse developmental effects; also recorded: no evidence of adverse developmental outcomes”, the “exposure at highest dose level (maternal toxicity observed) relative to exposure in patients at the recommended daily dose” value ([1]; rats, 250 mg/kg/day) is reported as 2.8 times and the “inhibition of OATP1B1” value [2] is reported as “not an inhibitor”. For the same compound, the “substrate of OATP1B1” value [2] was “not a substrate”, the “effect of co-administered omeprazole (proton pump inhibitor) on voxelotor exposure” value [3] was “did not alter voxelotor exposure” and the “inhibition of OCT2” value [4] was “not an inhibitor”. The genotoxicity [5] was “not genotoxic”, the “deaths, SAEs, AEs leading to discontinuation” value ([6]; all hepatic function groups) was “No deaths, other serious adverse events (SAEs), and no AEs leading to discontinuation of the study were reported” and the “subjects reporting mild TEAEs” value ([6]; mild hepatic impairment, 4 of 7 subjects) was 57.1%. The “subjects reporting a moderate TEAE” value ([6]; moderate hepatic impairment, 1 of 7 subjects) was 14.3%, the “subjects with TEAE of diarrhea (mild)” value ([6]; moderate hepatic impairment, 1500 mg, 5 of 7 subjects) was 71.4% and the “subjects reporting mild TEAEs” value ([6]; moderate hepatic impairment, 5 of 7 subjects) was 71.4%. The TEAEs ([6]; normal hepatic function, 1500 mg) was “No TEAEs were reported”, the “subjects with diarrhea (most frequently reported TEAE)” value ([6]; overall, 7 events in 7 subjects) was 25% and the “subjects reporting TEAEs” value ([6]; overall, 11 subjects, 17 TEAEs) was 39.3%. For the same compound, the “subjects with TEAEs possibly/probably related to study drug” value ([6]; overall, seven subjects, 8 TEAEs) was 25.0%, the “subjects reporting a mild TEAE and a moderate TEAE” value ([6]; severe hepatic impairment, 600 mg, 1 of 7 subjects) was 14.3% and the safety and tolerability ([6]; single oral dose 1500 mg (mild, moderate, normal) or 600 mg (severe hepatic impairment)) was “safe and well tolerated”. For the same compound, the “steady state plasma AUC higher in HbSC vs HbSS genotype patients” value [7] was 23%, the “steady state plasma Cmax higher in HbSC vs HbSS genotype patients” value [7] was 15% and the “steady state whole blood AUC higher in HbSC (n=11) vs HbSS (n=220) genotype patients” value [7] was 50%. The “steady state whole blood Cmax higher in HbSC vs HbSS genotype patients” value [7] was 45%, the “effect of voxelotor on PK of CYP2C19 probe substrate (omeprazole)” value ([8]; healthy subjects, multiple doses of voxelotor 900/600 mg QD) was “no clinically meaningful effect” and the “inhibition of CYP2C19 in vivo” value ([8]; human, in vivo) was “not”. The “inhibition of MATE2-K” value [9] was “not an inhibitor”, the “dose and its metabolites excreted in urine” value [10] was 35.5% and the “dose and its metabolites excreted into feces” value [10] was “approximately 62.6%”. The “dose excreted unchanged in urine” value [10] was 0.08%, the “dose excreted unchanged into feces” value [10] was 33.3% and the safety and tolerability [11] was “safe and well tolerated”. For the same compound, the “inhibition of CYP2C8 in vivo” value [12] was “not”, the “increase of AUC with high-fat, high-calorie meal relative to fasted state” value ([13]; plasma) was 42% and the “increase of Cmax with high-fat, high-calorie meal relative to fasted state” value ([13]; plasma) was 95%. For the same compound, the “increase of AUC with high-fat, high-calorie meal relative to fasted state” value ([13]; whole blood) was 42%, the “increase of Cmax with high-fat, high-calorie meal relative to fasted state” value ([13]; whole blood) was 45% and the QT interval prolongation [14] was “does not prolong QT interval to any clinically relevant extent”. The presence in milk [15] was “detected in milk”.
